What was measured:
Cholinesterase [1] = target: T1, Cholinesterase (Equus caballus, UniProt P81908); assay: Inhibition of equine BChE
Acetylcholinesterase [2] = target: T2, Acetylcholinesterase (Electrophorus electricus, UniProt O42275); assay: Inhibition of electric eel AChE
[3] = Selectivity index, ratio of IC50 for electric eel AChE to IC50 for equine BChE
Acetylcholinesterase [4] = target: T2, Acetylcholinesterase; assay: Inhibition of electric eel AChE using acetylthiocholine iodide as substrate incubated for 30 mins by Ellman's method
Acetylcholinesterase [5] = target: T2, Acetylcholinesterase; assay: Binding affinity to electric eel AChE assessed as inhibition constant using acetylthiocholine iodide as substrate incubated for 30 mins by Ellman's method
Acetylcholinesterase [6] = target: T3, Acetylcholinesterase (Homo sapiens, UniProt P22303); assay: Inhibition of recombinant human AChE
T3 sequence (P22303 whole entry): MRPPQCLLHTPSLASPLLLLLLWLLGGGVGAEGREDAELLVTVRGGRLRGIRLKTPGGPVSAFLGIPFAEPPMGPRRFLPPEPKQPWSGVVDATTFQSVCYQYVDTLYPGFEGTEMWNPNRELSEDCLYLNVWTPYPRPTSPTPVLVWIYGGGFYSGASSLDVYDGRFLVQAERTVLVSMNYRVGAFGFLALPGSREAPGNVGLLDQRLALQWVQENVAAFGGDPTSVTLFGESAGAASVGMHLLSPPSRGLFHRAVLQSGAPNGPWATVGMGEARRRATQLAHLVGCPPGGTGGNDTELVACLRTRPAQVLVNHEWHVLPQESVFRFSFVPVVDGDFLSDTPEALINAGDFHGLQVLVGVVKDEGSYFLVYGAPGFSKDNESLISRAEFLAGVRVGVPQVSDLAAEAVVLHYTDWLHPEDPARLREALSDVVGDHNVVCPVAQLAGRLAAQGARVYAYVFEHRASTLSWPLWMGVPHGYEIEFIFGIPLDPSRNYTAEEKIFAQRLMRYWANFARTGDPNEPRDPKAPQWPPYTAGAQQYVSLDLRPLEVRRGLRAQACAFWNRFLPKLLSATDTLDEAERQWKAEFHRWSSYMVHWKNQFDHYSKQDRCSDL

[7] = target: T4, Amine oxidase [flavin-containing] B (Homo sapiens, UniProt P27338); assay: Inhibition of MAO-B (unknown origin)
T4 sequence (P27338 whole entry): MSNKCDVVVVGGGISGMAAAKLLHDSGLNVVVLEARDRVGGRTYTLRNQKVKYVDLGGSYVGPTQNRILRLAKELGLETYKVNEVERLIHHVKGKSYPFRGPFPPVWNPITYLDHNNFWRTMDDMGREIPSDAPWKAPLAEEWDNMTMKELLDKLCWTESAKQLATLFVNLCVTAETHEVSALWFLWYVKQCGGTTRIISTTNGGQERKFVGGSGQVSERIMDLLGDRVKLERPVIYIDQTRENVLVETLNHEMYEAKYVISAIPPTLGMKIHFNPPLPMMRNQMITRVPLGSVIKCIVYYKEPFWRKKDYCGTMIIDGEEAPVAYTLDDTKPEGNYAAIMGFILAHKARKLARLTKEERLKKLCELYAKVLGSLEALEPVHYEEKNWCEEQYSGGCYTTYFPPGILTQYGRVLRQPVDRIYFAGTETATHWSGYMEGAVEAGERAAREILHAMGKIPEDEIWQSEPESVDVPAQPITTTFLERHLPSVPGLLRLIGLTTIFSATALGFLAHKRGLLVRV

Cholinesterase [8] = target: T5, Cholinesterase (Homo sapiens, UniProt P06276); assay: Inhibition of human BChE
T5 sequence (P06276 whole entry): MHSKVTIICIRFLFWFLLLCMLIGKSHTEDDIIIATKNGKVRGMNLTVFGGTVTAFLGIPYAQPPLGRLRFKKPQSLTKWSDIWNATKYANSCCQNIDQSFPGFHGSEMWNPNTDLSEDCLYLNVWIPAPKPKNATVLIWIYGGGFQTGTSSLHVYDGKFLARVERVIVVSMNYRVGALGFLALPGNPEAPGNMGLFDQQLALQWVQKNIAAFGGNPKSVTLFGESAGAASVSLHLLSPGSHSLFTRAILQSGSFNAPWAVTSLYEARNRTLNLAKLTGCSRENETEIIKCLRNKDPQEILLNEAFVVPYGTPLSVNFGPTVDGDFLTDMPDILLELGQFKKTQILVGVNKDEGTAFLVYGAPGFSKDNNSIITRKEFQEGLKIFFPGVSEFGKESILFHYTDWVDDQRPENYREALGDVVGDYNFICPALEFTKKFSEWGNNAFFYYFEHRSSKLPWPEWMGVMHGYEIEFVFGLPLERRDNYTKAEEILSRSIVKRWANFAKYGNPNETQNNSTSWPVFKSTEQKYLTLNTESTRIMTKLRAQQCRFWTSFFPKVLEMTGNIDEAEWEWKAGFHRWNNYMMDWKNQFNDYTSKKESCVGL

[9] = target: T6, Amine oxidase [flavin-containing] A (Homo sapiens, UniProt P21397); assay: Inhibition of MAO-A (unknown origin)
T6 sequence (P21397 whole entry): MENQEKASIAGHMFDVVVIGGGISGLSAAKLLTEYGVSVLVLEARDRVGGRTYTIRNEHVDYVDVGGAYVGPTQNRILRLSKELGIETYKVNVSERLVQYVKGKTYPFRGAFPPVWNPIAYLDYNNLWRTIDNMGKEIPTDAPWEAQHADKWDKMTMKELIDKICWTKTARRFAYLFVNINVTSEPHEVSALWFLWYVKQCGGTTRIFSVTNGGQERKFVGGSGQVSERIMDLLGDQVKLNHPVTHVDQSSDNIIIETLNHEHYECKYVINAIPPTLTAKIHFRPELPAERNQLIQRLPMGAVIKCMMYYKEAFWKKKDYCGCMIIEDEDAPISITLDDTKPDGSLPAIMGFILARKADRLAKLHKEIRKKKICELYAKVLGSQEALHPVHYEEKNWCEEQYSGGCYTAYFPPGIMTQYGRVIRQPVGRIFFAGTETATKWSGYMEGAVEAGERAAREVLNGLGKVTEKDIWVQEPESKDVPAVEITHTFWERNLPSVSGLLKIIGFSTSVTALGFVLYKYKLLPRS

Acetylcholinesterase [10] = target: T7, Acetylcholinesterase (Rattus norvegicus, UniProt P37136); assay: Inhibition of Sprague-Dawley rat cortex AChE using acetylthiocholine iodide as substrate incubated for 15 mins in presence of iso-OMPA inhibitor by Ellman's method
T7 sequence (P37136 whole entry): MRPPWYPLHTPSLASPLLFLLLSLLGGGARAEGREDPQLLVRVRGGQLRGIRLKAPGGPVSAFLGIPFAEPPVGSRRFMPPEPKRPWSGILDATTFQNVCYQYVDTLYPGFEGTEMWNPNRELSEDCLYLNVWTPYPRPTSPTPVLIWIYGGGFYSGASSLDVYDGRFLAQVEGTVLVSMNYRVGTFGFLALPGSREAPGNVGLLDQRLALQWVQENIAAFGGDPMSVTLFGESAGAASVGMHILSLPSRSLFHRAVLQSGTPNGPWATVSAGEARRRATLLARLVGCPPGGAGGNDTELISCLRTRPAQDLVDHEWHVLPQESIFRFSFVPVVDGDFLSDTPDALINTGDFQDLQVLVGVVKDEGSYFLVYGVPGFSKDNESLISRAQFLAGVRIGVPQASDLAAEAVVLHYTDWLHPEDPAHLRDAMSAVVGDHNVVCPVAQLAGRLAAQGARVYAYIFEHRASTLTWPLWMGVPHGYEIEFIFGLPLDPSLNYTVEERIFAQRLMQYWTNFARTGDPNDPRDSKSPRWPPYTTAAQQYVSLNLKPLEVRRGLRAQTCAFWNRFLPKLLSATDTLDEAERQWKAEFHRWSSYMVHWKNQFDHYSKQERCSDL

Cholinesterase [11] = target: T5, Cholinesterase; assay: Inhibition of BChE (unknown origin)
Cholinesterase [12] = target: T1, Cholinesterase; assay: Inhibition of equine BChE using acetylthiocholine iodide as substrate preincubated for 10 mins followed by substrate addition by Ellman's method
[13] = target: Cholinesterases; ACHE & BCHE (Homo sapiens) (UniProt P06276+P22303); assay: Selectivity index, ratio of IC50 for AChE (unknown origin) to BChE (unknown origin); type: protein assay
Sequence of Cholinesterases; ACHE & BCHE (Homo sapiens) (P06276 whole entry, looked up): as the sequence (P06276 whole entry) above
Sequence of Cholinesterases; ACHE & BCHE (Homo sapiens) (P22303 whole entry, looked up): as the sequence (P22303 whole entry) above

Acetylcholinesterase [14] = target: T3, Acetylcholinesterase; assay: Inhibition of AChE (unknown origin)
Acetylcholinesterase [15] = target: T3, Acetylcholinesterase; assay: Inhibition of human AChE
Acetylcholinesterase [16] = target: T3, Acetylcholinesterase
Description: Inhibition of human erythrocyte AChE using acetylthiocholine iodide as substrate preincubated for 30 mins followed by substrate addition measured after 5 mins by Ellman's method

Cholinesterase [17] = target: T5, Cholinesterase; assay: Inhibition of human serum BChE using butyrylthiocholine as substrate by Ellman's method
Acetylcholinesterase [18] = target: T7, Acetylcholinesterase; assay: Inhibition of rat AChE

T1 sequence (P81908 whole entry): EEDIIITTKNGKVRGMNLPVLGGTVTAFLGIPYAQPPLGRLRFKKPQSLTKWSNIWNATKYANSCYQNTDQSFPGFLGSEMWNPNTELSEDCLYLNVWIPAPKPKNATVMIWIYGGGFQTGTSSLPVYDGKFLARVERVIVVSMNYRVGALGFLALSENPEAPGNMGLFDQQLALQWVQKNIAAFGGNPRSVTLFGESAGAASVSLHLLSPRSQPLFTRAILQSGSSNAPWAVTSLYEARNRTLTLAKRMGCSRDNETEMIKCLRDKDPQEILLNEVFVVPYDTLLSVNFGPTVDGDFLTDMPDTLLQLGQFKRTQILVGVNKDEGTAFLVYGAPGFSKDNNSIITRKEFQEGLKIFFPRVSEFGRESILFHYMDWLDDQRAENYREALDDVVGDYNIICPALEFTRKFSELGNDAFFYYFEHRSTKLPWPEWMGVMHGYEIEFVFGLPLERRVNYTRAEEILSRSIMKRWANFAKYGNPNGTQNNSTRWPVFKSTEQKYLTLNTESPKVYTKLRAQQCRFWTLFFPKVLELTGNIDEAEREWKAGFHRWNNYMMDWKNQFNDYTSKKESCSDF
T2 sequence (O42275 whole entry): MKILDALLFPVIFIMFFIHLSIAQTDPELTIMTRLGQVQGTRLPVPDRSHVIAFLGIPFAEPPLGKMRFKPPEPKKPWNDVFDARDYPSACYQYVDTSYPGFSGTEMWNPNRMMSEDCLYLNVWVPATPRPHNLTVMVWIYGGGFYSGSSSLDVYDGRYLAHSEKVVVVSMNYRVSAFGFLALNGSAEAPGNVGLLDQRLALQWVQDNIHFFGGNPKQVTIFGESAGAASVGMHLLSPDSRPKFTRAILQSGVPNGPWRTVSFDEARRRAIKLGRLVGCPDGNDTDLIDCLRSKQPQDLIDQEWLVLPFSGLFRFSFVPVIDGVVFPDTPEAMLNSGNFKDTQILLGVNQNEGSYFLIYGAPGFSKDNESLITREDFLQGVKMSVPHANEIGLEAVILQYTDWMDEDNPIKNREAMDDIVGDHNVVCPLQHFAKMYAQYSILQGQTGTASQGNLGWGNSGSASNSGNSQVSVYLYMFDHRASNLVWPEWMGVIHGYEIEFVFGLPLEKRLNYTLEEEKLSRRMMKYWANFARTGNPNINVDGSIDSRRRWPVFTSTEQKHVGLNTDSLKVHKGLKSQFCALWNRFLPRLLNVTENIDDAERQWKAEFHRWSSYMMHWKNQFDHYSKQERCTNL

Q: For `CCCCCCCNC(=O)Oc1ccc(F)c(-c2coc3c4c(ccc3c2=O)OC(C)(C)C=C4)c1`, which IC50 (Cholinesterase [1]) is on record?
A: 0.093 µM

Q: What about the IC50 (Acetylcholinesterase [2]) of the same molecule?
A: 77.8 µM

Q: And the Ratio IC50 [3]?
A: 836

Q: For `COC(=O)CCC/C=C\C/C=C\C/C=C\CCOC(=O)Nc1ccc(Cl)cc1`, which IC50 (Acetylcholinesterase [4]) is on record?
A: 20.2 µM

Q: And the Ki (Acetylcholinesterase [5])?
A: 2.62 µM

Q: Which IC50 (Cholinesterase [1]) does the source give for `O=C(Nc1cccc([N+](=O)[O-])c1)OCCNc1c2ccccc2nc2ccccc12` here?
A: 0.017 µM

Q: What about the IC50 (Acetylcholinesterase [2]) of the same molecule?
A: 0.0221 µM

Q: Which IC50 (Cholinesterase [1]) does the source give for `O=c1ccc2ccc(OCCCCSC(=S)N3CCCCC3)cc2[nH]1` here?
A: 0.16 µM

Q: For `C#CCN[C@@H]1CCc2ccc(OC(=O)N(C)CC)cc21`, which IC50 (Acetylcholinesterase [6]) is on record?
A: 1000 µM

Q: And the IC50 [7]?
A: 2 µM

Q: What about the IC50 (Cholinesterase [8]) of the same molecule?
A: 4.1 µM

Q: And the IC50 [9]?
A: 0.77 µM

Q: With `CN1CCN(C(=O)Oc2ccc(/C=C/c3cc(OC(=O)N4CCN(C)CC4)cc(OC(=O)N4CCN(C)CC4)c3)cc2)CC1` as the molecule, how does the IC50 (Acetylcholinesterase [10]) read?
A: 6.97 µM

Q: Which IC50 (Cholinesterase [11]) does the source give for `CC(C)c1ccc(NC(=O)Oc2ccc3c(c2)[C@]2(C)CCO[C@@H]2O3)cc1` here?
A: 0.027 µM

Q: What does the source list for `C#CCN(C)C1CCc2c(OC(=O)N(C)CC)cccc21` (stereo not drawn)?
A: IC50 (Acetylcholinesterase [6]): 4 µM; IC50 [7]: 0.027 µM; IC50 (Cholinesterase [8]): 14.9 µM; IC50 [9]: 0.79 µM

Q: With `COc1ccccc1-c1ccc(=O)n(COC(=O)Nc2ccc(C)cc2)n1` as the molecule, how does the IC50 (Cholinesterase [12]) read?
A: 34.5 µM

Q: Which IC50 (Acetylcholinesterase [4]) does the source give for `COC(=O)CCC/C=C\C/C=C\C/C=C\CCOC(=O)Nc1ccc(Br)cc1` here?
A: 19.2 µM

Q: What about the Ki (Acetylcholinesterase [5]) of the same molecule?
A: 1.1 µM

Q: Which IC50 (Acetylcholinesterase [4]) does the source give for `COC(=O)CCC/C=C\C/C=C\C/C=C\CCOC(=O)Nc1ccc(OC)cc1` here?
A: 24.8 µM

Q: And the Ki (Acetylcholinesterase [5])?
A: 3.48 µM

Q: For `COc1cc(/C=C/c2ccc(OC(=O)N3CCN(C)CC3)cc2)cc(OC)c1`, which IC50 (Acetylcholinesterase [10]) is on record?
A: 8.58 µM

Q: For `CCCCCCCCNC(=O)Oc1cc(OC(=O)NCCCCCCCC)cc(OC(=O)NCCCCCCCC)c1`, which IC50 (Acetylcholinesterase [2]) is on record?
A: 0.015 µM

Q: With `CC(C)c1ccc(NC(=O)Oc2ccc3c(c2)[C@]2(C)CCN(CCc4ccccc4)[C@@H]2N3C)cc1` as the molecule, how does the Ratio IC50 [13] read?
A: > 5000

Q: What about the IC50 (Acetylcholinesterase [14]) of the same molecule?
A: > 30 µM

Q: With `CN1CC[C@@]2(C)c3cc(OC(=O)Nc4ccccc4)ccc3N(C)[C@@H]12` as the molecule, how does the Ratio IC50 [13] read?
A: 65

Q: Which IC50 (Cholinesterase [11]) does the source give for `Cc1ccccc1NC(=O)Oc1ccc2c(c1)[C@]1(C)CCO[C@@H]1O2` here?
A: > 30 µM

Q: Which IC50 (Acetylcholinesterase [15]) does the source give for `COC(=O)C1=CN([11CH3])c2cccc(OC(=O)N(C)C)c2C1` here?
A: > 1000 µM

Q: For `CCC(C)(C)NCC(O)c1cc(OC(=O)N(C)C)cc(OC(=O)N(C)C)c1` (stereo not drawn), which Ratio IC50 [3] is on record?
A: > 796

Q: With `CN(CCCOc1ccc2c(=O)c3ccccc3oc2c1)Cc1cccc(OC(=O)NCCCCCCCCCN2CCOCC2)c1` as the molecule, how does the IC50 (Acetylcholinesterase [16]) read?
A: 0.0089 µM

Q: And the IC50 (Cholinesterase [17])?
A: 0.0293 µM

Q: For `CC(C)C[C@@H](CS(=O)(=O)NCc1ccc(Cl)cc1)NC(=O)OCc1ccccc1`, which Ratio IC50 [3] is on record?
A: 10.3

Q: For `CN[C@@H](CCOc1ccc([N+](=O)[O-])cc1)c1ccc(OC(=O)N(C)C)cc1`, which IC50 (Acetylcholinesterase [18]) is on record?
A: 0.101 µM

Q: Which IC50 (Cholinesterase [12]) does the source give for `CCCCCCCNC(=O)OCn1nc(-c2ccccc2OC)ccc1=O` here?
A: 12.8 µM

Q: With `C#CCNC1CCc2c(OC(=O)N(C)CC)cccc21` (stereo not drawn) as the molecule, how does the IC50 (Acetylcholinesterase [6]) read?
A: 150 µM

Q: And the IC50 [7]?
A: 0.83 µM

Q: And the IC50 (Cholinesterase [8])?
A: 2.15 µM

Q: And the IC50 [9]?
A: 0.019 µM

Q: For `CCN1/C(=C/C(C)=O)Sc2ccc(OC(=O)OCCOCCNC(=O)c3cc4c(OC(=O)N(C)C)cccc4[n+](C)c3)cc21`, which IC50 (Cholinesterase [8]) is on record?
A: 0.482 µM

Q: And the IC50 (Acetylcholinesterase [15])?
A: 0.0814 µM

Q: For `COC(=O)c1cc2c(OC(=O)N(C)C)cccc2[n+]([11CH3])c1`, which IC50 (Acetylcholinesterase [15]) is on record?
A: 0.02 µM
